Experimental data reported in PMC12456999, “Sulfonyl Homoserine Lactones Are Tunable Probes to Inhibit the Quorum Sensing Receptor RhlR and Reduce Swarming Motility in Pseudomonas aeruginosa” (ACS Infectious Diseases, 2025).
Where two headings read alike, the source gives them in different places.

Tests used:
bacterial growth = experiment: Effect on bacterial growth (OD600 over time); assay type: cell-based; conditions: at >2 mM concentrations
Experimental: All new compounds were fully characterized for purity and identity (see Supporting Information). […] The remaining compounds had no effect on growth over the concentration range tested. All compounds were tested in bacteriological assays in triplicate and in at least three separate trials using unique cultures. IC50 and EC50 values in reporter assays were calculated using GraphPad Prism software (version 9.0) with a variable slope sigmoidal curve fit.

RhlR = biological target: T1, RhlR (Pseudomonas aeruginosa, UniProt P54292); experiment: E. coli (JLD271) RhlR reporter antagonism assay, in competition with BHL; assay type: cell-based; conditions: for max. RhlR inhibition (%): BHL at 10 μM set to 0%, media control set to 100%
T1 construct: expressed in transfected cells; host or cells: E. coli JLD271 (K-12 ΔlacX74 sdiA271::Cam) carrying pJN105-R2 (RhlR expression) and pSC11-rhlI (rhlI'-lacZ reporter)
T1 sequence (P54292 whole entry): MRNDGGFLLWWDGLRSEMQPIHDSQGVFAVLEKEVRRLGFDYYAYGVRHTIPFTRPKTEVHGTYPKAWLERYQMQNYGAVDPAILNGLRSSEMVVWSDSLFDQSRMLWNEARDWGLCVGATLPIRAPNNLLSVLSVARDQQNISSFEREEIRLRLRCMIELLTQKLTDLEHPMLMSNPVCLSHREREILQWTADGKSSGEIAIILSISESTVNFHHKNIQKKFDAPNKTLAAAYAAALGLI
Experimental: To start, the sulfonyl HLs were evaluated for their ability to antagonize RhlR using a previously described E. coli strain (JLD271) harboring a RhlR expression plasmid and a rhlI reporter plasmid. This E. coli reporter produces RhlR, and protein activity in the presence of an added small molecule can be measured via the production of β-galactosidase as quantified via luminescence (see Methods). Compounds were screened in competition against RhlR’s native ligand, BHL (at its EC50 value in this strain, 10 μM), over a range of concentrations to generate antagonism dose–response curves (see Supporting Information) and calculate IC50 values (listed in Table ). A small set of compounds was also screened for RhlR agonism in the E. coli reporter; the agonism assay format was identical to the antagonism assay, except no BHL was added.
RhlR activity in E. coli strain JLD271 (ΔsdiA) was measured via a β-galactosidase reporter (rhI-lacZ) using the Promega Beta-Glo Assay System as previously described. RhlR activity in P. aeruginosa PA14 (ΔrhlIΔlasI) was measured via a GFP reporter (rhlA-gfp). […] See Supporting Information for both reporter protocols.
Supporting Information — Aguirre-Figueroa et al.
E. coli and P. aeruginosa RhlR reporter assay protocols.
E. coli RhlR reporter assay. RhlR activity in E. coli strain JLD271 (ΔsdiA) was measured via a β-galactosidase reporter using the Promega Beta-Glo® Assay System as previously described.10 A schematic of the reporter plasmids and assay protocol is shown in Scheme S1. Briefly, a single colony of E. coli JLD271 harboring the RhlR expression plasmid pJN105-R and the rhlI-lacZ transcriptional fusion reporter pSC11-R (Table S1) was grown in LB medium with 100 μg/mL ampicillin and 10 μg/mL gentamicin overnight (~16 h). The culture was diluted 1:10 in fresh LB medium and grown to an OD600 = 0.25 (0.23–0.28) (~0.5 h). Arabinose was added to a final concentration of 4 mg/mL to induce the expression of pJN105-R. Aliquots (2 μL) of compound DMSO stock solution or serial dilution were added to the inner wells (i.e., non-periphery rows) of a 96-well microtiter plate. To six inner wells, DMSO alone (vehicle) was added as a negative control. For agonism assays, BHL was added to six inner wells as a positive control (to achieve 1 mM). For antagonism assays, BHL was added to six inner wells as a positive control and to all of the other sample wells except for the vehicle control wells (to achieve 10 μM ). Subculture (198 μL) was then dispensed into each inner well. To the outer (periphery) wells, 200 μL of water were added to maintain humidity during incubation. Plates were then incubated for 4 h (shaking) at 37 °C.
Scheme S1. Schematic of E. coli reporter plasmids and assay. (A) Representation of plasmids used in the heterologous reporter system. (B) General reporter assay workflow. BioRender used in […]
After the incubation period, the OD600 of each well was measured using a plate reader. Cell dilution plates were prepared by transferring 10 μL from the incubated culture plate wells to a fresh 96-well plate and adding 90 μL of 18 MΩ water to each well. Next, 10 μL aliquots of diluted Beta-Glo® reagent (1:2 with 18 MΩ water) were added to each well of a white 384-well microtiter plate, followed by 10 μL of culture from each well of the dilution plate. The 384-well plate was incubated (without shaking; i.e., static) for 30 min at 30 °C. After incubation, luminescence of each well was measured using a plate reader. To determine levels of RhlR activity, raw luminescence was divided by OD600 to correct for growth variation and then normalized to the negative (0%) and positive (100%) control wells.
Dose-response reporter assay data for compounds in the E. coli RhlR reporter.
Dose-response curves for RhlR antagonism by compounds against 10 μM BHL using the E. coli JLD271 RhlR reporter are provided below. Compound names are indicated on the x-axis of each plot.
All assays performed in triplicate as at least three separate biological replicates. […]

[1] = IC50, E. coli JLD271 RhlR reporter, against 10 μM BHL

Row | SMILES | effect on bacterial growth (bacterial growth) | fold more potent than 4-bromo BSHL (35) (RhlR; E. coli RhlR reporter IC50) [fold] | max. RhlR inhibition (%) (RhlR; E. coli RhlR reporter) | IC50 (RhlR; [1]) [µM] | potency gain (RhlR; 33 vs 16, 43 vs 24, 86 vs 45, E. coli RhlR reporter IC50) [fold] | fold lower IC50 value than 3-Cl BSHL (28) (RhlR; E. coli RhlR reporter IC50) | IC50 (RhlR; E. coli JLD271 RhlR reporter, against 10 μM BHL) [µM] | IC50 (RhlR; read-out: inhibitory potency on average (74, 75 and 18), average over the C4, C5 and C6 ASHLs, E. coli RhlR reporter) [µM]
1 | O=C1OCC[C@@H]1NS(=O)(=O)c1cccc(Br)c1 [Compound 39, 3-bromo BSHL] | modest effect on bacterial growth | ~6 | 90 | 29.9 |  |  |  | 
2 | O=C1OCC[C@@H]1NS(=O)(=O)c1ccc(Cl)c(Cl)c1 [Compound 43, 3,4-di-Cl BSHL] | modest effect on bacterial growth |  | 99 | 54.3 | ≤ 40 | over 2 fold |  | 
3 | O=C1OCC[C@@H]1NS(=O)(=O)c1ccc(F)c(F)c1 [Compound 59, 3,4-di-F BSHL] |  |  | 87 | 87.8 |  |  |  | 
4 | CCCCCS(=O)(=O)N[C@H]1CCOC1=O [Compound 75, C5 ASHL] |  |  | 84 |  |  |  | 20.6 | ~28
